Results on 29 compounds are retold here after US20100292205A1, “Pyrimidone Compounds As GSK-3 Inhibitors” (PFIZER INC., priority 2006, published 2010).

For orientation: inhibition means the drop in the measured response relative to a control, in per cent. For orientation: IC50 means the point on the concentration scale where inhibition reaches its midpoint.

T1 sequence (P49841 whole entry): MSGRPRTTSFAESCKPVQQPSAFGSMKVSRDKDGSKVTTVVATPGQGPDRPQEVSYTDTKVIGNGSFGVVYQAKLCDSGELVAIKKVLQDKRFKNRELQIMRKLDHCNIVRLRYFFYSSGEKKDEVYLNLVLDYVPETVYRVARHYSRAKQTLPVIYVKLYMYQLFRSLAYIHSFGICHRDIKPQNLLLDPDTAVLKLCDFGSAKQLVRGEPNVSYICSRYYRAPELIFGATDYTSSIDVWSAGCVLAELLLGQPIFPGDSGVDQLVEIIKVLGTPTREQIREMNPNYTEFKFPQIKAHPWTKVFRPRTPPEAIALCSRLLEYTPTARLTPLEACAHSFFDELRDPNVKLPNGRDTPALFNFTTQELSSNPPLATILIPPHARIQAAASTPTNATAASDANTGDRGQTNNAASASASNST

The first experiment has as its target T1, Recombinant human GSK3β (Homo sapiens, UniProt P49841).
T1 construct: His-tag; made in house; host or cells: Sf9 insect cells / baculovirus
Kind of experiment: GSK-3β (Glycogen Synthase Kinase) cell free enzyme assay. In kind it is biochemical. As to conditions: 1 μM; Examples 157-199; read-out: Percent inhibition at 1 μM. As to the method:
Assay Protocol for GSK-3β (Glycogen Synthase Kinase) in a Cell Free Enzyme Assay
Recombinant human GSK3β was expressed in SF9/Baculo virus cells. His-tag protein was purified by affinity chromatography to a Ni-NTA Superflow column. Enzyme activity was assayed as the incorporation of [33P] from the gamma phosphate of [33P]ATP (PerkinElmer) into biotinylated peptide substrate bio-LC-S-R-H-S-S-P-H-Q-pS-E-D-E-E-E-OH (Anaspec). Reactions were carried out in a buffer containing 8 mM MOPS (pH 7.0), 10 mM Magnesium Acetate, 0.2 mM EDTA, 1 mM DTT and 2 uM cold ATP. The 33P-ATP was added for 0.025 uCi/well (120 uL) and the final concentration of substrate was 1.0 uM. Enzyme was preincubated with test agent for 30 minutes at room temperature followed by initiation of the reaction by the addition of substrate mix. Incubations were carried out at RT for 60 min. Reactions were stopped by addition of 0.66 volume of buffer containing: 12.5 mM EDTA, 0.25% Triton-X 100, 125 uM ATP, and 6.2 mg/ml streptavidin coated SPA beads (Amersham) in PBS without Ca or Mg. Radioactivity associated with the beads was quantified by scintillation counting of CPM in a Trilux counter (PerkinElmer).
Examples 42 to 60 were prepared using the analogous procedure described to prepare Example 41, substituting the appropriate starting material (Examples 1 to 35) and coupling with the appropriate acid. The assay protocol used is the percent inhibition at 1 μM for GSK-3β in the cell free enzyme assay described above.
As for `CCN(c1nc(-c2ccncc2)cc(=O)n1C)C1CCCN(S(=O)(=O)c2ccccc2)C1` (centres unmarked) [Example 185, 2-{Ethyl[1-(phenylsulfonyl)piperidin-3-yl]amino}-3-methyl-6-pyridin-4-ylpyrimidin-4(3H)-one], the inhibition at 1 µM is 101%.

`CN(c1nc(-c2ccncc2)cc(=O)n1C)[C@@H]1CC[C@H]2N(S(=O)(=O)Cc3ccccc3)CCC2(C)C1` (stereo partly drawn) [Example 195, 2-{[(3,aS5,R7,aR)-1-(Benzylsulfonyl)-3a-methyloctahydro-1H-indol-5-yl](methyl)amino}-3-methyl-6-pyridin-4-ylpyrimidin-4(3H)-one]: the inhibition at 1 µM amounted to 92%. As to `CCN(c1nc(-c2ccncc2)cc(=O)n1C)C1CCCN(S(C)(=O)=O)C1` (centres unmarked) [Example 164, 2-{Ethyl[1-(methylsulfonyl)piperidin-3-yl]amino)-3-methyl-6-pyridin-4-ylpyrimidin-4(3H)-one], the inhibition at 1 µM was found to be 82%. Still for that read-out and setting: then `Cn1c(N[C@@H]2CN(S(C)(=O)=O)C[C@@H]2F)nc(-c2ccncc2)cc1=O` [Example 161, 2-{[(3R,4S)-4-Fluoro-1-(methylsulfonyl)pyrrolidin-3-yl]amino}-3-methyl-6-pyridin-4-ylpyrimidin-4(3H)-one], with 93%.

`Cn1c(N2CC[C@@H]3CN(S(=O)(=O)Cc4ccccc4)C[C@@H]32)nc(-c2ccncc2)cc1=O` [Example 193, 2-[(3a,R6,aR)-5-(Benzylsulfonyl)hexahydro-pyrrolo[34-b]pyrrol-1(2H)-yl]-3-methyl-6-pyridin-4-ylpyrimidin-4(3H)-one]: the inhibition at 1 µM was 80%.

The experiment is the same for the next values; noted with them: 1 μM; Examples 201-221.
In the case of “Methyl (1R,5S)-8-(1-methyl- 6-oxo-4-pyridin-4-yl-16- dihydropyrimidin-2-yl)-38- diazabicyclo[3.2.1]octane-3- carboxylate [Example 202]”, the “Percent inhibition at 1 μM” value came out at 93%.

The same experiment, now with this note: 1 μM; Examples 236-262; read-out: Percent inhibition at 1 μM.
As to `CN1C[C@H](Nc2nc(-c3ccncc3)cc(=O)n2C)[C@@H](F)C1` [Example 242, 2-{[(3S,4S)-4-Fluoro-1-methylpyrrolidin-3-yl]amino}-3-methyl-6-pyridin-4-ylpyrimidin-4(3H)-one], the inhibition at 1 µM stood at 43%.

As to `CCN(c1nc(-c2ccncc2)cc(=O)n1C)C1CCN(C)C1` (centres unmarked) [Example 244, 2-[ethyl(1-Methylpyrrolidin-3-yl)amino]-3-methyl-6-pyridin-4-ylpyrimidin-4(3H)-one], the inhibition at 1 µM was 60%.

As for `CCN(c1nc(-c2ccncc2)cc(=O)n1C)C1CCCN(C)CC1` (centres unmarked) [Example 247, 2-[Ethyl(1-methylazepan-4-yl)amino]-3-methyl-6-pyridin-4-ylpyrimidin-4(3H)-one], the inhibition at 1 µM turned out to be 78%.

`CN1CCCC(Nc2nc(-c3ccncc3)cc(=O)n2C)CC1` (centres unmarked) [Example 241, 3-Methyl-2-[(1-methylazepan-4-yl)amino]-6-pyridin-4-ylpyrimidin-4(3H)-one]: the inhibition at 1 µM was found to be 72%.

The same experiment, now with this note: 1 μM; GSK-3β cell free enzyme assay; Examples 42-60; read-out: Percent inhibition at 1 μM.
As for `CCN(c1nc(-c2ccncc2)cc(=O)n1C)C1CCCN(C(C)=O)CC1` (centres unmarked) [Example 56, 2-[(1-Acetylazepan-4-yl)(ethyl)amino]-3-methyl-6-pyridin-4-ylpyrimidin-4(3H)-one], the inhibition at 1 µM came out at 85%. Turning to `CC(=O)N1CCCCC(Nc2nc(-c3ccncc3)cc(=O)n2C)C1` (centres unmarked) [Example 46, 2-[(1-Acetylazepan-3-yl)amino]-3-methyl-6-pyridin-4-ylpyrimidin-4(3H)-one], the inhibition at 1 µM is 51%.

Still in this experiment, the particulars now being: cell free enzyme assay; Examples 1-35.
Consider `Cn1c(NCC2OCCc3ccccc32)nc(-c2ccncc2)cc1=O` (centres unmarked) [Example 3, 2-[(3,4-dihydro-1H-Isochromen-1-ylmethyl)amino]-3-methyl-6-pyridin-4-ylpyrimidin-4(3H)-one], for which the IC50 turned out to be 23 nM. On the same count and under the same terms, as for `Cn1c(N[C@H]2Cc3ccccc3NC2=O)nc(-c2ccncc2)cc1=O` [Example 9, (3S)-3-[(1-Methyl-6-oxo-4-pyridin-4-yl-1,6-dihydropyrimidin-2-yl)amino]-3,4-dihydroquinolin-2(1H)-one], the figure is 30 nM; as for `Cn1c(N[C@@H]2CC[C@@H](NC(=O)OC(C)(C)C)C2)nc(-c2ccncc2)cc1=O` [Example 21, tert-butyl {(1R,3R)-3-[(1-Methyl-6-oxo-4-pyridin-4-yl-1,6-dihydropyrimidin-2-yl)amino]cyclopentyl} carbamate], 52.5 nM.

Staying with this experiment, now noted: cell free enzyme assay; Examples 62-155.
As to `Cn1c(N[C@@H]2CN(C(=O)Cc3ccccc3)C[C@@H]2F)nc(-c2ccncc2)cc1=O` [Example 87, 2-{[(3R,4S)-4-Fluoro-1-(phenylacetyl)pyrrolidin-3-yl]amino}-3-methyl-6-pyridin-4-ylpyrimidin-4(3H)-one], the IC50 was determined as 285 nM. On the same count and under the same terms, as for `CN(c1nc(-c2ccncc2)cc(=O)n1C)C1CCN(C(=O)c2ccccc2)C1` (centres unmarked) [Example 70, 2-[(1-Benzoylpyrrolidin-3-yl)(methyl)amino]-3-methyl-6-pyridin-4-ylpyrimidin-4(3H)-one], the figure is 170 nM; as for `Cc1c(C(=O)N2C[C@@H]3[C@H](C2)[C@H]3N(C)c2nc(-c3ccncc3F)cc(=O)n2C)cnn1-c1ccccc1` [Example 155, 6-(3-Fluoropyridin-4-yl)-3-methyl-2-(methyl{(1R,5S,6s)-3-[(5-methyl-1-phenyl-1H-pyrazol-4-yl)carbonyl]-3-azabicyclo[3.1.0]hex-6-yl}amino)pyrimidin-4(3H)-one], 102 nM; as for `Cn1c(NC2CCCN(C(=O)c3ccccc3)C2)nc(-c2ccncc2)cc1=O` (centres unmarked) [Example 66, 2-[(1-Benzoylpiperidin-3-yl)amino]-3-methyl-6-pyridin-4-ylpyrimidin-4(3H)-one], 1000 nM.

In the case of `Cc1ccc(C(=O)N2C[C@@H]3[C@H](C2)[C@H]3N(C)c2nc(-c3ccncc3F)cc(=O)n2C)cc1` [Example 142, 6-(3-Fluoropyridin-4-yl)-3-methyl-2-{methyl[(1R,5S,6s)-3-(4-methylbenzoyl)-3-azabicyclo[3.1.0]hex-6-yl]amino}pyrimidin-4(3H)-one], the IC50 was 3.51 nM. As for `CN(c1nc(-c2ccncc2)cc(=O)n1C)C1CCCN(C(=O)c2ccccc2)CC1` (centres unmarked) [Example 72, 2-[(1-Benzoylazepan-4-yl)(methyl)amino]-3-methyl-6-pyridin-4-ylpyrimidin-4(3H)-one], the IC50 was 61.5 nM. Still for that read-out and setting: then `Cn1c(NCC2CN(C(=O)c3ccccc3)C2)nc(-c2ccncc2)cc1=O` [Example 76, 2-{[(1-Benzoylazetidin-3-yl)methyl]amino}-3-methyl-6-pyridin-4-ylpyrimidin-4(3H)-one], with 72.4 nM; and `CN(c1nc(-c2ccncc2F)cc(=O)n1C)[C@H]1[C@@H]2CN(C(=O)c3cc(Cl)cc(Cl)c3)C[C@@H]21` [Example 116, 2-{[(1R,5S,6s)-3-(3,5-Dichlorobenzoyl)-3-azabicyclo[3.1.0]hex-6-yl](methyl)amino}-6-(3-fluoropyridin-4-yl)-3-methylpyrimidin-4(3H)-one], with 4.4 nM. `Cn1c(NC2CN(C(=O)c3ccccc3)C2)nc(-c2ccncc2)cc1=O` [Example 64, 2-[(1-Benzoylazetidin-3-yl)amino]-3-methyl-6-pyridin-4-ylpyrimidin-4(3H)-one]: the IC50 came out at 367 nM. The same measure, in the same setting: as for `Cn1c(NCC2CN(C(=O)Cc3ccccc3)C2)nc(-c2ccncc2)cc1=O` [Example 95, 3-Methyl-2-({[1-(phenylacetyl)azetidin-3-yl]methyl}amino)-6-pyridin-4-ylpyrimidin-4(3H)-one], the figure is 1380 nM.

Staying with this experiment, now noted: cell free enzyme assay; Examples 222-234.
`CCOC(=O)N1CCC[C@H]1CN(CC)c1nc(-c2ccncn2)cc(=O)n1C` [Example 225, Ethyl (2S)-2-{[ethyl(1-methyl-6-oxo-1,6-dihydro-4,4′-bipyrimidin-2-yl)amino]methyl}pyrrolidine-1-carboxylate]: the half-inhibitory concentration (IC50) amounted to 0.755 nM.

Still in this experiment, the particulars now being: cell free enzyme assay; Examples 265-291.
For the compound `COCC(C)n1nnnc1N1C[C@@H]2[C@H](C1)[C@H]2N(C)c1nc(-c2ccncc2F)cc(=O)n1C` (stereo partly drawn) [Example 287, 6-(3-Fluoropyridin-4-yl)-2-[{(1R,5S,6s)-3-[1-(2-methoxy-1-methylethyl)-1H-tetrazol-5-yl]-3-azabicyclo[3.1.0]hex-6-yl}(methyl)amino]-3-methylpyrimidin-4(3H)-one], the IC50 worked out at 3.06 nM. `Cc1nn(C2CCCC2)c2nc(N3C[C@@H]4[C@H](C3)[C@H]4N(C)c3nc(-c4ccncc4F)cc(=O)n3C)[nH]c(=O)c12` [Example 277, 1-Cyclopentyl-6-[(1R,5S,6s)-6-{[4-(3-fluoropyridin-4-yl)-1-methyl-6-oxo-1,6-dihydropyrimidin-2-yl](methyl)amino}-3-azabicyclo[3.1.0]hex-3-yl]-3-methyl-1,5-dihydro-4H-pyrazolo[3,4-d]pyrimidin-4-one]: the IC50 is 51.7 nM. Take `Cc1nnc2c(N3C[C@@H]4[C@H](C3)[C@H]4N(C)c3nc(-c4ccncc4F)cc(=O)n3C)nc(-c3ccccc3)cn12` [Example 274, 6-(3-Fluoropyridin-4-yl)-3-methyl-2-{methyl[(1R,5S,6s)-3-(3-methyl-6-phenyl[1,2,4]triazolo[4,3-a]pyrazin-8-yl)-3-azabicyclo[3.1.0]hex-6-yl]amino}pyrimidin-4(3H)-one]: the half-inhibitory concentration (IC50) was 234 nM.
